Measured values as given in patent US20200108089A1, “Gemcitabine Derivatives for Cancer Therapy” (Suzhou Sirnaomics Biopharmaceuticals Co., Ltd., priority 2017, published 2020).
Where two headings read alike, the source gives them in different places. Bridge positions count the residues as written; N and C are the ends. Ends that are not written are not given here. I, II: the chains in the order shown.

Columns and labels:
[1] = tested on: LX-1, CALU-6, NCI-H460, NCI-H520 human lung xenografts; details: cited from earlier work
[2] = tested on: Lewis lung murine xenograft; details: cited from earlier work
[3] = cited from earlier work
[4] = -NH2 of Gemcitabine; cited from earlier work
[5] = tested on: miR-132; assay: Knockdown of miR-132 by antagomir-132 nanoparticles in mouse eyes; type: in vivo; details: QPCR
Procedure: FIG. 4. Knockdown of miR-132 by antagomir-132 nanoparticles in mouse eyes. […] One way ANOVA with Bonferroni's post hoc test was used to calculate the level of significance. P≤0.05 (*). Six corneas were collected and pooled for analysis by QPCR or WB. (B) Antagomir-132 and scrambled sequences were injected in HSV infected mice subconjunctively and the quantification of RasGAP mRNA from corneas isolated from different groups was carried out (n=6 mice/group). The level of significance was determined by student's t test (unpaired). ***P≤0.001.
One way ANOVA with Bonferroni's post hoc test was used to calculate the level of significance. P≤0.05 (*). Six corneas were collected and pooled for analysis by QPCR or WB. (B) Antagomir-132 and scrambled sequences were injected in HSV infected mice subconjunctively and the quantification of RasGAP mRNA from corneas isolated from different groups was carried out (n=6 mice/group). The level of significance was determined by student's t test (unpaired). ***P≤0.001 (FIG. 4).

[6] = tested on: Panc-1 cells; assay: Dosage-dependent cytotoxicities of Gemcitabine and GEM-HKP conjugate, Cell Titer-Glo; type: cell-based, human; details: Panc-1, 72 hrs post treatment
Procedure: FIG. 21. Dosage-Dependent Cytotoxicities of Gemcitabine and GEM-HKP conjugate in the Panc-1 cell culture, at 72 hrs post treatments After exposures of the Panc-1 cells to Gemcitabine only, GEM-HKP conjugate, the cytotoxicities of each treatment was assessed with a “Cell Titer-Glo Luminescent cell viability assay” (Promega). Values derived from untreated cells (Blank) were set as 100%. All values represent the mean of ±S.D. of four replicates for each dilution. In this study, the HKP concentration at each point equals to its concentration in the Gem/HKP.

[7] = tested on: Panc-1 cells; assay: Effect of TGF-β1siRNA and mTORsiRNA on chemosensitivity of Panc-1 cells to low dose GEM-TCA; type: cell-based, human; details: 48 h; for maximum cell killing: siRNA 30 nM plus GEM-TCA up to 1 μM; for sensitization of Panc-1 cells to GEM-TCA: siRNA 30 nM
Procedure: FIG. 10. Effect of forward transfection with TGF-β1siRNA and mTORsiRNA chemosensitivity of Panc-1 cells to […] The next day, the medium was supplemented with 3.9 nM-1000 nM […] diluted in the same medium. At 48 h post chemical exposure cytotoxicity was assessed with Cell Titer-Glo Luminescent cell viability assay (Promega). Values derived from untreated cells (Blank) were set as 100%. All values represent the mean of ±S.D. of four replicates for each dilution. Paired sample two-tailed Student's t-test was used to determine significance.
. At 48 h post chemical exposure cytotoxicity was assessed with Cell Titer-Glo Luminescent cell viability assay (Promega). Values derived from untreated cells (Blank) were set as 100%. All values represent the mean of ±S.D. of four replicates for each dilution. Paired sample two-tailed Student's t-test was used to determine significance. The TGF-β1siRNA was previously identified and validated with multiple in vitro and in vivo assays: […]

[8] = tested on: Panc-1 cells; assay: Effect of forward transfection with mTOR siRNA on chemosensitivity of Panc-1 cells to GEM-TCA; type: cell-based, human; details: mTOR-siRNA 10 nM and 20 nM; GEM-TCA 12.3 nM to 1 μM; 72 h; vs non-targeting siRNA
Procedure: FIG. 9. Effect of forward transfection with mTORsiRNA on chemosensitivity of Panc-1 cells to […] 5×10^3 Panc-1 cells were seeded on the wells of 96-well plate in 100 ul of DMEM/10% FBS. The next day cells were transfected with siRNA/Lipofectamine 2000 complexes accordingly to the manufactures' recommendations. In 5-6 h. medium was changed. The next day various concentrations of […] were applied to the transfected cells. At 72 h post chemical exposure cytotoxicity was assessed with Cell Titer-Glo Luminescent cell viability assay (Promega). Values derived from untreated cells (Blank) were set as 100%. All values represent the mean of ±S.D. of four replicates for each dilution. * different from cells transfected with control, not-targeting siRNA (p<0.05, Student's t test)
To realize the original hypothesis that the oncogenic gene target knockdown may induce a chemosensitivity of Panc-1 cell toward to […], the experiment was conducted with following procedures. 5×10^3 Panc-1 cells were seeded on the wells of 96-well plate in 100 ul of DMEM/10% FBS. The next day cells were transfected with siRNA/Lipofectamine 2000 complexes accordingly to the manufactures' recommendations. In 5-6 h. medium was changed. […] At 72 h post chemical exposure cytotoxicity was assessed with Cell Titer-Glo Luminescent cell viability assay (Promega). […]

[9] = tested on: mTOR; assay: Selection of potent siRNA targeting mTOR, transfection and qRT-PCR, MDA-MB-231; type: cell-based; details: human MDA-MB-231 cells, qRT-PCR
Description: (§1) FIG. 3. Selection of potent siRNA targeting mTOR. (A) The lower panel illustrates selection of eight 25 mer siRNA duplexes with control siRNA were transfected into human MDA-MB-231 cells and mouse CT26 cells. 24 hr later, mRNA was collected and subject to Q-RT-PCR with the standard control gene target Rigs15.
(§2) For mTOR siRNA selection, we first use in silico screening selected 8 siRNA sequences for siRNA oligo synthesis. And then we transfected these siRNAs into human MDA-MB-231 cells and mouse CT26 cells. Twenty-four hours later, the total mRNA collected and subjected to qRT-PCR analysis with the standard control gene target Rigs15. From FIG. 3 we can see that the potent siRNA duplexes targeting mTOR (both human and mouse mRNAs) was selected.
(§3) We have identified potent mTOR specific siRNA through cell culture studies with human breast cancer cell line MDA-MB-231 and mouse CT26 cells, followed by qRT-PCR analyses: mTOR-siRNA: […]

[10] = tested on: mTOR; assay: Selection of potent siRNA targeting mTOR, transfection and qRT-PCR, CT26; type: cell-based; details: mouse CT26 cells, qRT-PCR
Description: as §1, §2, §3

## Nc1ccn([C@@H]2O[C@H](CO)[C@@H](O)C2(F)F)c(=O)n1 [Gemcitabine, 2′,2′-difluorodeoxycytidine]
[1]; LX-1 and CALU-6 human lung xenografts
  activity in combination with cisplatin: showed activity
[1]; NCI-H460 or NCI-H520 xenografts
  activity in combination with cisplatin: minimal activity
[2]
  interaction with cisplatin: synergistic
[3]
  activity with cisplatin in vitro: dose-dependent synergistic activity
[4]
  pKa: ~2.8

## Antagomir-132: modified RNA oligo targeting miR-132 (accguggcuuucgauuguuacu), packaged with HKP into nanoparticles (antisense ACCGUGGCUUUCGAUUGUUACU; chemically modified, pattern not given here, packaged with HKP into nanoparticles)
[5]
  miR-132 knockdown in the corneas: peak miR-132 knockdown

## I: KHHHKHHHKHHHKHHHKKKK-NH2 / II: KHHHKHHHKHHHKHHHK / III: KHHHKHHHKHHHKHHHK / IV: KHHHKHHHKHHHKHHHK (amide I:18-IV:C, I:19-III:C, I:20-II:C) [HKP]
[6]
  cytotoxicity: no cytotoxicity

## TGF-β1siRNA: siRNA duplex to TGF-β1; sense 5′-r(CCUCAAUUCAGUCUCUCAUCUGCAA)-3′ in b118 (sense CCCAAGGGCUACCAUGCCAACUUCU; antisense AGAAGUUGGCAUGGUAGCCCUUGGG; chemistry not given here)
[7]
  maximum cell killing: 60%
[7]; GEM-TCA 3.9 nM
  sensitization of Panc-1 cells to GEM-TCA: significantly sensitize
[7]; GEM-TCA 62.5 nM
  sensitization of Panc-1 cells to GEM-TCA: sensitization effect was still significant

## mTOR-siRNA: 25mer siRNA duplex specific to mTOR mRNA; sense 5′-r(GGUCUGGUGCCUGGUCUGAUGAUGU)-3′ in b114 (sense CACUACAAAGAACUGGAGUUCCAGA; antisense UCUGGAACUCCAGUUCUUUGUAGUG; further chemistry not given here)
[8]
  tumor cell killing by GEM-TCA after siRNA transfection: significantly improved
[9]
  mTOR silencing potency: potent
[7]
  maximum cell killing: 60%
[7]; GEM-TCA 3.9 nM
  sensitization of Panc-1 cells to GEM-TCA: significantly sensitize
[7]; GEM-TCA 15.6 nM
  sensitization of Panc-1 cells to GEM-TCA: sensitization effect was disappeared
[10]
  mTOR silencing potency: potent
